The EC50 is the concentration giving half of the maximal effect.

Numbered stars: 1 amine (or outer) side, 2 acyl side, 3 side chain; on linkers, the order of the positions; unused ones are H or OH. Bridge positions count the residues as written; N and C are the ends. Square brackets hold non-standard residues; d marks the D form. Side chains are listed from the residue outwards. Peptide text beside a SMILES is read from it. * marks the point of attachment. C18 diacid = O=C(O)CCCCCCCCCCCCCCCCC(=O)*; γGlu = O=C(O)[C@H](CCC(=O)[*:2])N[*:1]; Dab = NCC[C@H](N)C(=O)O; Aib = CC(C)(N)C(=O)O

A short description of series [1]: Thioflavin T fibrillation assay. It counts as physicochemical. As to conditions: ThT fibrillation assay; peptide 1 mg/mL in 25 mM sodium acetate buffer pH 4.0; 6 days at 37 °C with shaking; >144 h = no increase. The method, boiled down:
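Peptides at 1 mg/mL in 25 mM sodium acetate pH 4.0 with ThT (from 0.25 mM stock), incubated 6 days at 37 °C with intermittent orbital shaking at 500–750 rpm. Fluorescence (ex 444/em 480 nm) read every 30 min; value is average time to a rise in baseline-corrected signal.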

Series [2] deals with T1, rat calcitonin receptor (rat CTR) (Rattus norvegicus, UniProt P32214).
T1 construct: expressed in transfected cells
T1 sequence (P32214 25-516): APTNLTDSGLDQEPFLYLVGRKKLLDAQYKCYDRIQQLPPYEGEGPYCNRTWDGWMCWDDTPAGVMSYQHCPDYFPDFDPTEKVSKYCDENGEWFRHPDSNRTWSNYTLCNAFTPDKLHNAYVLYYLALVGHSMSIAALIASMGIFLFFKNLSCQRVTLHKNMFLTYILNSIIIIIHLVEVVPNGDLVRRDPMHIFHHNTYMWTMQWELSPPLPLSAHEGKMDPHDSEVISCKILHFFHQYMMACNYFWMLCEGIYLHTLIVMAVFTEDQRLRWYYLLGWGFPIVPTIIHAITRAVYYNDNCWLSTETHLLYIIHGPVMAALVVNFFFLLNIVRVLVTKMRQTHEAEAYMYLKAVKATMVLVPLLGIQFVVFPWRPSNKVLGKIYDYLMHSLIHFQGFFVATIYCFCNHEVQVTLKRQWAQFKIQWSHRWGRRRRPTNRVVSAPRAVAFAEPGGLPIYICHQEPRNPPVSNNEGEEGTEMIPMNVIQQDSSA
Description: cAMP production in HEK cells with stable recombinant expression of rat calcitonin receptor (rat CTR). It counts as cell-based. As to conditions: assay buffer with 0.1% BSA. The method, boiled down:
(§1)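 EC50 values come from 4-parameter logistic fits of HTRF cAMP signal, normalised to maximal calcitonin or amylin effect. Peptides were tested in duplicate for 30 min at RT in IBMX-containing (0.5 mM) BSA/HEPES buffer pH 7.4 on stable 1321N1 (human CTR, AMYR3) or HEK (rat CTR, AMYR3) lines.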
Background: Cyclic AMP is a second messenger, typically raised through Gs and lowered through Gi signalling.

Series [3] addresses T2, human amylin receptor (calcitonin receptor co-expressed with receptor activity modifying protein, RAMP3) (hAMYR3) (Homo sapiens, UniProt O60896+P30988).
T2 construct: expressed in transfected cells
T2 sequence (P30988 25-474): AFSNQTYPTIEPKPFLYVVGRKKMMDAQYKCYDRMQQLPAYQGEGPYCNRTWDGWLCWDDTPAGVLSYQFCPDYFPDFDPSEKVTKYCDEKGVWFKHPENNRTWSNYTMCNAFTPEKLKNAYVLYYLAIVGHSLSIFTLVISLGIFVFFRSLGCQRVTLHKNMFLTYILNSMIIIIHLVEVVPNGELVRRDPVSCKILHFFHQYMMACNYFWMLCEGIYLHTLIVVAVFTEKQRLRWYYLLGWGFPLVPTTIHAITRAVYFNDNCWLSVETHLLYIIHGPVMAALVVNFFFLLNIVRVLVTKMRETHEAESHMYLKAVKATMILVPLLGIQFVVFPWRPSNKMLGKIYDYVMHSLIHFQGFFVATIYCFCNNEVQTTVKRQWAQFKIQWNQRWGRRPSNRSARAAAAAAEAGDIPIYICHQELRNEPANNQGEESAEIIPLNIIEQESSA
T2 sequence (O60896 24-148 partner): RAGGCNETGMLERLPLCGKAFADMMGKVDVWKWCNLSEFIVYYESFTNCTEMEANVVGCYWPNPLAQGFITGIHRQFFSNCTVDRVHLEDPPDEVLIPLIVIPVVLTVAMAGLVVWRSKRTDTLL
Description: cAMP production in 1321N1 cells with stable recombinant expression of human amylin receptor (hAMYR3). It counts as cell-based. Conditions: for Ratio (selectivity hAMYR vs hCTR, ratio of EC50 values at the two receptors): EC50 hCTR / EC50 hAMYR3; for EC50: cAMP, 1321N1 cells, assay buffer with 0.1% BSA, read-out: EC50 (pM) hAMYR3. The method, boiled down: as §1

The target in series [4] is T3, human calcitonin receptor (hCTR) (Homo sapiens, UniProt P30988).
T3 construct: expressed in transfected cells
T3 sequence (P30988 25-474): T2 sequence (P30988 25-474)
Description: cAMP production in 1321N1 cells with stable recombinant expression of human calcitonin receptor (hCTR). It counts as cell-based. As to conditions: cAMP, 1321N1 cells, assay buffer with 0.1% BSA; read-out: EC50 (pM) hCTR. The method, boiled down: as §1

On to `CC[C@H](C)[C@H](NC(=O)[C@@H]1CCCN1C(=O)CNC(=O)[C@H](Cc1ccccc1)NC(=O)[C@H](CC(N)=O)NC(=O)C(C)(C)NC(=O)[C@H](CO)NC(=O)[C@H](CO)NC(=O)[C@H](Cc1c[nH]cn1)NC(=O)[C@H](CCCNC(=N)N)NC(=O)[C@H](CC(C)C)NC(=O)[C@H](Cc1ccccc1)NC(=O)[C@H](CC(N)=O)NC(=O)[C@H](C)NC(=O)[C@H](CC(C)C)NC(=O)[C@H](CCCNC(=N)N)NC(=O)[C@H](CCC(N)=O)NC(=O)[C@@H](NC(=O)[C@H](C)NC(=O)[C@@H]1CSSC[C@H](NC(=O)[C@@H](N)CCCCNC(=O)CC[C@H](NC(=O)CCCCCCCCCCCCCCCCC(=O)O)C(=O)O)C(=O)N[C@@H](CC(N)=O)C(=O)N[C@@H]([C@@H](C)O)C(=O)N[C@@H](C)C(=O)N[C@@H]([C@@H](C)O)C(=O)N1)[C@@H](C)O)C(=O)N[C@@H](CC(C)C)C(=O)N1CCC[C@H]1C(=O)N1CCC[C@H]1C(=O)N[C@H](C(=O)N[C@@H](CC(N)=O)C(=O)N[C@H](C(=O)NCC(=O)N[C@@H](CO)C(=O)N[C@@H](CC(N)=O)C(=O)N[C@H](C(=O)N[C@@H](Cc1ccc(O)cc1)C(N)=O)[C@@H](C)O)C(C)C)[C@@H](C)O` [Peptide 48, K(γE-C18diacid)[CNTATC]ATQRLANFLRHSS(Aib)NFGPILPPTNVGSNTY-amide] (H-K([γGlu-C18 diacid])CNTATCATQRLANFLRHSS[Aib]NFGPILPPTNVGSNTY-NH2; disulfide 2-7; N-terminus assumed), for which the “Time taken to detect increase in fluorescence intensity” value (“Time taken to detect increase” for short) in series [1] was more than 144 h. Also, the EC50 in series [2] came out at 2430 pM; in series [3], 126 pM; in series [4], 5270 pM. In series [3], the “Ratio (selectivity hAMYR vs hCTR, ratio of EC50 values at the two receptors)” value worked out at 42.
`CC[C@H](C)[C@H](NC(=O)[C@H](C)NC(=O)[C@@H]1CCCN1C(=O)[C@H](Cc1ccccc1)NC(=O)[C@H](CC(N)=O)NC(=O)C(C)(C)NC(=O)[C@H](CO)NC(=O)[C@H](CO)NC(=O)[C@H](Cc1c[nH]cn1)NC(=O)[C@@H](NC(=O)[C@H](CC(C)C)NC(=O)[C@H](Cc1ccccc1)NC(=O)[C@H](CC(N)=O)NC(=O)[C@H](C)NC(=O)[C@H](CC(C)C)NC(=O)[C@H](CCCNC(=N)N)NC(=O)[C@H](CCC(N)=O)NC(=O)[C@@H](NC(=O)[C@H](C)NC(=O)[C@@H]1CSSC[C@H](NC(=O)[C@@H](N)CCCCNC(=O)CC[C@H](NC(=O)CC[C@H](NC(=O)CCCCCCCCCCCCCCCCC(=O)O)C(=O)O)C(=O)O)C(=O)N[C@@H](CC(N)=O)C(=O)N[C@@H]([C@@H](C)O)C(=O)N[C@@H](C)C(=O)N[C@@H]([C@@H](C)O)C(=O)N1)[C@@H](C)O)C(C)C)C(=O)N[C@@H](CC(C)C)C(=O)N[C@@H](CO)C(=O)N1CCC[C@H]1C(=O)N[C@H](C(=O)N[C@@H](CC(N)=O)C(=O)N[C@H](C(=O)NCC(=O)N[C@@H](CO)C(=O)N[C@@H](CC(N)=O)C(=O)N[C@H](C(=O)N[C@@H](Cc1ccc(O)cc1)C(N)=O)[C@@H](C)O)C(C)C)[C@@H](C)O` [Peptide 9, K(γE-γE-C18diacid)[CNTATC]ATQRLANFLVHSS(Aib)NFPAILSPTNVGSNTY-amide] (H-K([γGlu-γGlu-C18 diacid])CNTATCATQRLANFLVHSS[Aib]NFPAILSPTNVGSNTY-NH2; disulfide 2-7): the “Time taken to detect increase” value in series [1] came to 7 h. Also, the results for the EC50 in series [2], in series [3] and in series [4] were 9720 pM, 320 pM and 13500 pM, respectively. Further, the “Ratio (selectivity hAMYR vs hCTR, ratio of EC50 values at the two receptors)” value in series [3] is given as 42.
Regarding `CC[C@H](C)[C@H](NC(=O)[C@H](C)NC(=O)[C@@H]1CCCN1C(=O)[C@H](Cc1ccccc1)NC(=O)[C@H](CC(N)=O)NC(=O)[C@H](CCN)NC(=O)[C@H](CO)NC(=O)[C@H](CO)NC(=O)[C@H](Cc1c[nH]cn1)NC(=O)[C@@H](NC(=O)[C@H](CC(C)C)NC(=O)[C@H](Cc1ccccc1)NC(=O)[C@H](CC(N)=O)NC(=O)[C@H](C)NC(=O)[C@H](CC(C)C)NC(=O)[C@H](CCCNC(=N)N)NC(=O)[C@H](CCC(N)=O)NC(=O)[C@@H](NC(=O)[C@H](C)NC(=O)[C@@H]1CSSC[C@H](NC(=O)[C@@H](N)CCCCNC(=O)CC[C@H](NC(=O)CC[C@H](NC(=O)CCCCCCCCCCCCCCCCC(=O)O)C(=O)O)C(=O)O)C(=O)N[C@@H](CC(N)=O)C(=O)N[C@@H]([C@@H](C)O)C(=O)N[C@@H](C)C(=O)N[C@@H]([C@@H](C)O)C(=O)N1)[C@@H](C)O)C(C)C)C(=O)N[C@@H](CC(C)C)C(=O)N[C@@H](CO)C(=O)N1CCC[C@H]1C(=O)N[C@H](C(=O)N[C@@H](CC(N)=O)C(=O)N[C@H](C(=O)NCC(=O)N[C@@H](CO)C(=O)N[C@@H](CC(N)=O)C(=O)N[C@H](C(=O)N[C@@H](Cc1ccc(O)cc1)C(N)=O)[C@@H](C)O)C(C)C)[C@@H](C)O` [Peptide 8, K(γE-γE-C18diacid)[CNTATC]ATQRLANFLVHSS(Dab)NFPAILSPTNVGSNTY-amide] (H-K([γGlu-γGlu-C18 diacid])CNTATCATQRLANFLVHSS[Dab]NFPAILSPTNVGSNTY-NH2; disulfide 2-7), the “Time taken to detect increase” value in series [1] is recorded as 7 h. Also, the EC50 in series [2] was 19900 pM; in series [3], 375 pM; in series [4], 20200 pM. Also, the “Ratio (selectivity hAMYR vs hCTR, ratio of EC50 values at the two receptors)” value in series [3] is recorded as 54.
For `CC[C@H](C)[C@H](NC(=O)[C@@H]1CCCN1C(=O)CNC(=O)[C@H](Cc1ccccc1)NC(=O)[C@H](CC(N)=O)NC(=O)C(C)(C)NC(=O)[C@H](CO)NC(=O)[C@H](CO)NC(=O)[C@H](Cc1c[nH]cn1)NC(=O)[C@@H](NC(=O)[C@H](CC(C)C)NC(=O)[C@H](Cc1ccccc1)NC(=O)[C@H](CC(N)=O)NC(=O)[C@H](C)NC(=O)[C@H](CC(C)C)NC(=O)[C@H](CCCNC(=N)N)NC(=O)[C@H](CCC(N)=O)NC(=O)[C@@H](NC(=O)[C@H](C)NC(=O)[C@@H]1CSSC[C@H](NC(=O)[C@H](CCCCN)NC(=O)[C@@H](N)CCCCNC(=O)CC[C@H](NC(=O)CCCCCCCCCCCCCCCCC(=O)O)C(=O)O)C(=O)N[C@@H](CC(N)=O)C(=O)N[C@@H]([C@@H](C)O)C(=O)N[C@@H](C)C(=O)N[C@@H]([C@@H](C)O)C(=O)N1)[C@@H](C)O)C(C)C)C(=O)N[C@@H](CC(C)C)C(=O)N1CCC[C@H]1C(=O)N1CCC[C@H]1C(=O)N[C@H](C(=O)N[C@@H](Cc1c[nH]cn1)C(=O)N[C@H](C(=O)NCC(=O)N[C@@H](CO)C(=O)N[C@@H](CC(N)=O)C(=O)N[C@H](C(=O)N[C@@H](Cc1ccc(O)cc1)C(N)=O)[C@@H](C)O)C(C)C)[C@@H](C)O` [Peptide 40, K(γE-C18diacid)K[CNTATC]ATQRLANFLVHSS(Aib)NFGPILPPTHVGSNTY-amide] (H-K([γGlu-C18 diacid])KCNTATCATQRLANFLVHSS[Aib]NFGPILPPTHVGSNTY-NH2; disulfide 3-8), in that order: more than 144 h, 782 pM, 228 pM, 3330 pM and 15.
